One assay concerns Wnt/β-catenin pathway. The assay can be described thus: Wnt reporter assay (TCF-Luciferase, Firefly) in DBTRG-05MG cells. The settings on record: Homo sapiens, 24 hours after compound addition. The assay is classed as cell-based. The method, boiled down:
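DBTRG-05MG cells carrying a 4×TCF-driven firefly luciferase reporter, kept under Zeocin or Zeocin plus Hygromicin selection. Compounds added 36 hours after plating at 8 points from 60 μM to 0.185 μM (0.6% DMSO), triplicate, for 24 hours. Firefly and Renilla luminescence each expressed as % of control; IC50 from four-parameter sigmoid fit.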

The next assay deals with DBTRG cells. The assay can be described thus: Soft agar anchorage independent assay. The assay is classed as cell-based. The settings on record: 504 h, colonies scored 3 weeks later, read-out: 1050 value in the soft agar assay. The protocol: The pharmacological activity of the compounds of the invention may be tested in vitro for growth inhibition against tumour cell lines. Such cell lines may, for example be representative of glioblastoma (such as DBTRG-05MG), or colorectal (for example DLD-1, HCT116) cancer. The different genetic background of the cancer cell will facilitate to understand to which level of the pathway the compounds work. If the cells harbour a truncated APC allele, the destruction complex activity is affected; if cells carry a gain of function mutation in the β-catenin gene, which prevents β-catenin protein degradation, this leads to constitutive activation of downstream genes. There are many assays available for testing the growth inhibition.
Soft Agar Anchorage Independent Assay
DBTRG cells were seeded into a 24-well format in the presence of carrier alone or compound (0.6% DMSO (v/v)). Each well is composed of two agar layers: the bottom layer consists of 0.6% Agar while the top has 0.35% Agar plus cells and compound. Cells (2500 per well) were incubated with 7 points dilution compound the day of the plating and the colonies were scored 3 weeks later after o/n staining with MTT solution. Imaging and counting of the colonies was done with the GelCount™ instrument (Oxford Optronix, UK). For IC50 determination the data were expressed as % of control, values were calculated using XLFit version 4.2, with a four parameters sigmoid function (XLFit model 205).

SMILES strings stand for the structures.

Consider `O=C(C1CCC(Cn2c(=O)[nH]c3ccccc3c2=O)CC1)N1CCN(C(=O)C2CC2)CC1` (stereo not drawn) [Example 47], for which the IC50 with Wnt/β-catenin pathway was in the range of 0.3 to 30 µM; with DBTRG cells, 0.9 to 30 µM.

With `O=C(c1ccco1)N1CCN(C(=O)C2CCC(Cn3c(=O)[nH]c4ccccc4c3=O)CC2)CC1` (stereo not drawn) [Example 48], the values for the IC50 in the assay on Wnt/β-catenin pathway and in the assay with DBTRG cells were 0.3 to 30 µM and 0.9 to 30 µM, respectively.

Take `Cn1c(=O)n(C[C@H]2CC[C@H](C(=O)N3CCN(C(=O)C4CC4)CC3)CC2)c(=O)c2ccccc21` [Example 56]: the IC50 in the assay on Wnt/β-catenin pathway fell in the range of 0.3 to 30 µM; with DBTRG cells, 0.9 to 30 µM.

As to `O=c1[nH]c2ccccc2c(=O)n1C[C@H]1CC[C@H](C(=O)N2CCN(c3cnccn3)CC2)CC1` [Example 57], the results for the IC50 with Wnt/β-catenin pathway and with DBTRG cells were 0.3 to 30 µM and 0.9 to 30 µM, respectively.

For `CC(C)C(=O)N1CCN(C(=O)[C@H]2CC[C@H](Cn3c(=O)[nH]c4ccccc43)CC2)CC1` [Example 58], the IC50 in the assay with Wnt/β-catenin pathway lay within 0.3 to 30 µM; in the assay on DBTRG cells, 0.9 to 30 µM.

Turning to `O=C(CC1CCCCC1)N1CCN(C(=O)[C@H]2CC[C@H](Cn3c(=O)[nH]c4ccccc4c3=O)CC2)CC1` [Example 59], the IC50 in the assay with Wnt/β-catenin pathway is 0.3 to 30 µM; with DBTRG cells it was 0.9 to 30 µM.

Turning to `O=C(C1CCC1)N1CCN(C(=O)[C@H]2CC[C@H](Cn3c(=O)[nH]c4ccccc4c3=O)CC2)CC1` [Example 60], the results for the IC50 with Wnt/β-catenin pathway and in the assay on DBTRG cells were 0.3 to 30 µM and 0.9 to 30 µM, respectively.

For the compound `COCC(=O)N1CCN(C(=O)[C@H]2CC[C@H](Cn3c(=O)c4cc(OC)ccc4n(C)c3=O)CC2)CC1` [Example 66], the figures for the IC50 in the assay on Wnt/β-catenin pathway and in the assay with DBTRG cells were 0.3 to 30 µM and 0.9 to 30 µM, respectively.

As to `COc1ccc2c(c1)CN(C[C@H]1CC[C@H](C(=O)N3CCN(C(=O)C4CC4)CC3)CC1)C(=O)N2` [Example 71], the IC50 in the assay on Wnt/β-catenin pathway was 0.3 to 30 µM; in the assay with DBTRG cells, 0.9 to 30 µM.

For `COc1ccc2[nH]c(=O)n(C[C@H]3CC[C@H](C(=O)N4CCN(C(=O)C5CC5)CC4)CC3)c(=O)c2c1` [Example 75], the IC50 fell in the range of 0.3 to 30 µM in the assay with Wnt/β-catenin pathway and 0.9 to 30 µM with DBTRG cells.

Consider `COCC(=O)N1CCN(C(=O)[C@H]2CC[C@H](Cn3c(=O)[nH]c4ccc(OC)cc4c3=O)CC2)CC1` [Example 77], for which the IC50 in the assay on Wnt/β-catenin pathway fell in the range of 0.3 to 30 µM; in the assay on DBTRG cells, 0.9 to 30 µM.

As to `COc1ccc2c(c1)c(=O)n(C[C@H]1CC[C@H](C(=O)N3CCN(C(=O)C4CC4)CC3)CC1)c(=O)n2C` [Example 78], the IC50 with Wnt/β-catenin pathway fell in the range of 0.3 to 30 µM; in the assay with DBTRG cells it was 0.9 to 30 µM.

For the compound `O=C(C1CC1)N1CCN(C(=O)[C@H]2CC[C@H](Cn3c(=O)c4ccccc4n(CCF)c3=O)CC2)CC1` [Example 79], the IC50 in the assay with Wnt/β-catenin pathway fell in the range of 0.3 to 30 µM; in the assay with DBTRG cells it was 0.9 to 30 µM.

Turning to `Cn1c(=O)n(C[C@H]2CC[C@H](C(=O)N3CCN(C(=O)C4CC4)CC3)CC2)c2ccccc21` [Example 80], the figures for the IC50 with Wnt/β-catenin pathway and in the assay with DBTRG cells were 0.3 to 30 µM and 0.9 to 30 µM, respectively.

As for `COc1ccc2c(c1)c(=O)n(C[C@H]1CC[C@H](C(=O)N3CCN(C)C(=O)C3)CC1)c(=O)n2C` [Example 92], the IC50 in the assay on Wnt/β-catenin pathway lay within 0.3 to 30 µM; in the assay with DBTRG cells it was 0.9 to 30 µM.

For the compound `COc1ccc2[nH]c(=O)n(C[C@H]3CC[C@H](C(=O)N4CCN(C(C)=O)CC4)CC3)c(=O)c2c1` [Example 99], the IC50 in the assay on Wnt/β-catenin pathway lay in the range of 0.3 to 30 µM; in the assay with DBTRG cells, 0.9 to 30 µM.

As to `COc1ccc2[nH]c(=O)n(C[C@H]3CC[C@H](C(=O)N4CCN(C(=O)[C@H]5CCCO5)CC4)CC3)c(=O)c2c1` [Example 109], the IC50 lay within 0.3 to 30 µM with Wnt/β-catenin pathway and 0.9 to 30 µM with DBTRG cells.

`COC(=O)N1CCN(C(=O)[C@H]2CC[C@H](Cn3c(=O)[nH]c4ccc(OC)cc4c3=O)CC2)CC1` [Example 116]: the IC50 fell in the range of 0.3 to 30 µM in the assay with Wnt/β-catenin pathway and 0.9 to 30 µM with DBTRG cells.

As for `COc1ccc2c(c1)c(=O)n(C[C@H]1CC[C@H](C(=O)N3CCN(C(=O)c4cncn4C)CC3)CC1)c(=O)n2C` [Example 122], the IC50 in the assay with Wnt/β-catenin pathway is 0.3 to 30 µM; in the assay with DBTRG cells, 0.9 to 30 µM.

Consider `COc1ccc2c(c1)n(C[C@H]1CC[C@H](C(=O)N3CCN(C(=O)C4CC4)CC3)CC1)c(=O)n2C` [Example 135], for which the IC50 in the assay on Wnt/β-catenin pathway lay in the range of 0.3 to 30 µM; in the assay with DBTRG cells, 0.9 to 30 µM.

In the case of `COc1ccc2c(c1)c(=O)n(C[C@H]1CC[C@H](C(=O)N3CCN(C(C)=O)CC3)CC1)c(=O)n2C` [Example 136], the IC50 in the assay on Wnt/β-catenin pathway is 0.3 to 30 µM; in the assay with DBTRG cells it was 0.9 to 30 µM.

As to `COc1ccc2c(c1)c(=O)n(C[C@H]1CC[C@H](C(=O)N3CCN(C(=O)c4ccno4)CC3)CC1)c(=O)n2C` [Example 146], the IC50 fell in the range of 0.3 to 30 µM in the assay on Wnt/β-catenin pathway and 0.9 to 30 µM in the assay on DBTRG cells.

For `Cc1ccc2c(n1)n(C[C@H]1CC[C@H](C(=O)N3CCN(C(=O)C4CC4)CC3)CC1)c(=O)n2C` [Example 169], the IC50 in the assay with Wnt/β-catenin pathway is 0.3 to 30 µM; in the assay with DBTRG cells, 0.9 to 30 µM.

With `COC(=O)N1CCN(C(=O)[C@H]2CC[C@H](Cn3c(=O)c4cc(OC)ccc4n(C)c3=O)CC2)CC1` [Example 175], the IC50 was 0.3 to 30 µM with Wnt/β-catenin pathway and 0.9 to 30 µM with DBTRG cells.

(Values after US8865704B2, “Wnt pathway antagonists” (Siena Biotech S.p.A., priority 2009, dated 2014).)
